We go through 7 cell lines from the supplement of paper PMC10307832.

Holding throughout (assay): relative viability (nuclei count vs DMSO), 5 days (fraction); higher = more cells survive
Compound in assay [1]: C1COCCN1C2=NC(=NC3=C2OC4=C3C=CC=N4)C5=CC(=CC=C5)NC(=O)C6=CN=C(C=C6)N + COc1cccc2cc(-c3nc([C@H]4CC[C@H](C(=O)O)CC4)n4ncnc(N)c34)[nH]c12 [OSI-027] (partner 0.5 µM)
In a few lines:
(§1)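 Five library-drug doses in √10 steps were combined with a fixed anchor-drug dose, or a single drug was given alone, by pin tool to lung cancer cell lines in 1536-well plates the day after seeding. Nuclei were stained and counted after 5 days. Relative viability is the nuclei count in treated wells over that in vehicle wells, taken as the median of duplicate plates.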

Compound in assay [2]: C1COCCN1C2=NC(=NC3=C2OC4=C3C=CC=N4)C5=CC(=CC=C5)NC(=O)C6=CN=C(C=C6)N + Nc1nc2[nH]cc(CCc3ccc(C(=O)N[C@@H](CCC(=O)O)C(=O)O)cc3)c2c(=O)[nH]1 [Pemetrexed] (partner 0.2 µM)
The method, boiled down: as §1

Compound in assay [3]: C1COCCN1C2=NC(=NC3=C2OC4=C3C=CC=N4)C5=CC(=CC=C5)NC(=O)C6=CN=C(C=C6)N + O=C(CCCCCCC(=O)Nc1ccccc1)NO [Vorinostat] (partner 1 µM)
In a few lines:
as §1

Compound in the assay “SGI-1776 + Pictilisib”: CN1CCC(CNc2ccc3ncc(-c4cccc(OC(F)(F)F)c4)n3n2)CC1 [SGI-1776] + CS(=O)(=O)N1CCN(Cc2cc3nc(-c4cccc5[nH]ncc45)nc(N4CCOCC4)c3s2)CC1 [Pictilisib] (partner 1 µM)
In a few lines:
as §1

As to NCI-H3122, the relative viability in assay [1] (first compound 0.02 µM) worked out at 0.998; in assay [1] (first compound 0.06325 µM), 1.01; in assay [1] (first compound 0.2 µM) it was 0.835; in assay [1] (first compound 0.6325 µM) it was 0.977; in assay [1] (first compound 2 µM) it was 0.347; in assay [2] (first compound 0.02 µM), 0.207. The relative viability was determined as 0.199 in assay [2] (first compound 0.06325 µM); 0.183 in assay [2] (first compound 0.2 µM); 0.186 in assay [2] (first compound 0.6325 µM); 0.183 in assay [2] (first compound 2 µM); 0.924 in assay [3] (first compound 0.02 µM); 1.09 in assay [3] (first compound 0.06325 µM). For the same cell line, the relative viability in assay [3] (first compound 0.2 µM) was 0.946; in assay [3] (first compound 0.6325 µM), 1.06; in assay [3] (first compound 2 µM), 0.639; with SGI-1776 + Pictilisib (first compound 0.08 µM) it was 0.594; with SGI-1776 + Pictilisib (first compound 0.8 µM), 0.717; in the assay with SGI-1776 + Pictilisib (first compound 2.53 µM), 0.632. Besides, the relative viability with SGI-1776 + Pictilisib (first compound 8 µM) was 0.515.
With PC-3 [JPC-3], the relative viability in assay [1] (first compound 0.02 µM) worked out at 0.849; in assay [1] (first compound 0.06325 µM), 0.839; in assay [1] (first compound 0.2 µM), 0.697; in assay [1] (first compound 0.6325 µM) it was 0.704; in assay [1] (first compound 2 µM) it was 0.54; in assay [2] (first compound 0.02 µM), 1.21. Besides, the relative viability in assay [2] (first compound 0.06325 µM) stood at 1.09; in assay [2] (first compound 0.6325 µM), 1.08; in assay [2] (first compound 2 µM) it was 1.17; in assay [3] (first compound 0.02 µM), 0.729; in assay [3] (first compound 0.06325 µM), 0.678; in assay [3] (first compound 0.6325 µM) it was 0.662. In addition, the relative viability in assay [3] (first compound 2 µM) amounted to 0.638; with SGI-1776 + Pictilisib (first compound 0.08 µM) it was 0.72; in the assay with SGI-1776 + Pictilisib (first compound 0.8 µM), 0.779; in the assay with SGI-1776 + Pictilisib (first compound 2.53 µM), 0.768; in the assay with SGI-1776 + Pictilisib (first compound 8 µM), 0.478.
PC-14: the relative viability in assay [1] (first compound 0.02 µM) was 0.976; in assay [1] (first compound 0.06325 µM), 1.2; in assay [1] (first compound 0.2 µM), 0.977; in assay [1] (first compound 0.6325 µM), 0.554; in assay [1] (first compound 2 µM) it was 0.233; in assay [2] (first compound 0.02 µM), 0.14. Besides, the relative viability in assay [2] (first compound 0.06325 µM) came to 0.135; in assay [2] (first compound 0.2 µM) it was 0.129; in assay [2] (first compound 0.6325 µM) it was 0.0787; in assay [2] (first compound 2 µM), 0.0733; in assay [3] (first compound 0.02 µM) it was 0.784; in assay [3] (first compound 0.06325 µM) it was 0.816. For the same cell line, the relative viability amounted to 0.648 in assay [3] (first compound 0.2 µM); 0.603 in assay [3] (first compound 0.6325 µM); 0.362 in assay [3] (first compound 2 µM); 0.667 with SGI-1776 + Pictilisib (first compound 0.08 µM); 0.681 in the assay with SGI-1776 + Pictilisib (first compound 0.8 µM); 0.747 in the assay with SGI-1776 + Pictilisib (first compound 2.53 µM). In the assay with SGI-1776 + Pictilisib (first compound 8 µM), the relative viability stood at 0.195.
On to RERF-LC-KJ, for which the relative viability in assay [1] (first compound 0.02 µM) was 0.558; in assay [1] (first compound 0.06325 µM), 0.594; in assay [1] (first compound 0.2 µM) it was 0.558; in assay [1] (first compound 0.6325 µM), 0.458; in assay [1] (first compound 2 µM) it was 0.462; in assay [2] (first compound 0.02 µM), 0.507. The relative viability in assay [2] (first compound 0.06325 µM) is 0.46; in assay [2] (first compound 0.2 µM), 0.484; in assay [2] (first compound 0.6325 µM), 0.457; in assay [2] (first compound 2 µM), 0.376; in assay [3] (first compound 0.02 µM), 0.696; in assay [3] (first compound 0.06325 µM) it was 0.782. In addition, the relative viability is 0.653 in assay [3] (first compound 0.2 µM); 0.603 in assay [3] (first compound 0.6325 µM); 0.598 in assay [3] (first compound 2 µM); 0.556 in the assay with SGI-1776 + Pictilisib (first compound 0.08 µM); 0.533 with SGI-1776 + Pictilisib (first compound 0.8 µM); 0.568 with SGI-1776 + Pictilisib (first compound 2.53 µM). The relative viability in the assay with SGI-1776 + Pictilisib (first compound 8 µM) is 0.353.
Regarding SK-LU-1, the relative viability in assay [1] (first compound 0.02 µM) was 0.38; in assay [1] (first compound 0.06325 µM), 0.36; in assay [1] (first compound 0.2 µM) it was 0.348; in assay [1] (first compound 0.6325 µM), 0.329; in assay [1] (first compound 2 µM) it was 0.266; in assay [2] (first compound 0.02 µM) it was 1.07. Besides, the relative viability turned out to be 0.953 in assay [2] (first compound 0.06325 µM); 1.06 in assay [2] (first compound 0.2 µM); 0.917 in assay [2] (first compound 0.6325 µM); 0.465 in assay [2] (first compound 2 µM); 0.741 in assay [3] (first compound 0.02 µM); 0.742 in assay [3] (first compound 0.06325 µM). For the same cell line, the relative viability turned out to be 0.736 in assay [3] (first compound 0.2 µM); 0.647 in assay [3] (first compound 0.6325 µM); 0.482 in assay [3] (first compound 2 µM); 0.609 with SGI-1776 + Pictilisib (first compound 0.08 µM); 0.623 with SGI-1776 + Pictilisib (first compound 0.8 µM); 0.409 in the assay with SGI-1776 + Pictilisib (first compound 2.53 µM). Besides, the relative viability with SGI-1776 + Pictilisib (first compound 8 µM) was 0.361.
Regarding SK-MES-1, the relative viability in assay [1] (first compound 0.02 µM) worked out at 0.572; in assay [1] (first compound 0.06325 µM) it was 0.664; in assay [1] (first compound 0.2 µM), 0.589; in assay [1] (first compound 0.6325 µM), 0.426; in assay [1] (first compound 2 µM) it was 0.337; in assay [2] (first compound 0.02 µM), 0.984. Further, the relative viability in assay [2] (first compound 0.06325 µM) was 0.958; in assay [2] (first compound 0.2 µM), 0.827; in assay [2] (first compound 0.6325 µM), 0.86; in assay [2] (first compound 2 µM) it was 0.646; in assay [3] (first compound 0.02 µM), 1.12; in assay [3] (first compound 0.06325 µM), 1.22. In addition, the relative viability in assay [3] (first compound 0.2 µM) was found to be 1.09; in assay [3] (first compound 0.6325 µM), 1.03; in assay [3] (first compound 2 µM), 0.72; in the assay with SGI-1776 + Pictilisib (first compound 0.08 µM) it was 0.364; with SGI-1776 + Pictilisib (first compound 0.8 µM), 0.353; with SGI-1776 + Pictilisib (first compound 2.53 µM), 0.33. Besides, in the assay with SGI-1776 + Pictilisib (first compound 8 µM), the relative viability worked out at 0.278.
For the cell line SW 1573, the relative viability amounted to 0.592 in assay [1] (first compound 0.02 µM); 0.776 in assay [1] (first compound 0.06325 µM); 0.75 in assay [1] (first compound 0.2 µM); 0.477 in assay [1] (first compound 0.6325 µM); 0.371 in assay [1] (first compound 2 µM); 0.925 in assay [2] (first compound 0.02 µM). The relative viability turned out to be 0.731 in assay [2] (first compound 0.06325 µM); 0.794 in assay [2] (first compound 0.2 µM); 0.812 in assay [2] (first compound 0.6325 µM); 0.322 in assay [2] (first compound 2 µM); 0.737 in assay [3] (first compound 0.02 µM); 0.953 in assay [3] (first compound 0.06325 µM). Also, the relative viability in assay [3] (first compound 0.2 µM) was 0.705; in assay [3] (first compound 0.6325 µM), 0.552; in assay [3] (first compound 2 µM) it was 0.451; in the assay with SGI-1776 + Pictilisib (first compound 0.08 µM) it was 0.452; with SGI-1776 + Pictilisib (first compound 0.8 µM), 0.449; in the assay with SGI-1776 + Pictilisib (first compound 2.53 µM), 0.424. The relative viability with SGI-1776 + Pictilisib (first compound 8 µM) amounted to 0.393.
